Measured values reported in patent US20240217930A1 (priority 2021, published 2024).

What follows are molecules tested against SARS-CoV-2 Mpro (Severe acute respiratory syndrome coronavirus 2, UniProt P0DTD1) (assay: SARS-CoV-2 Mpro FRET-based enzyme assay). Settings: 5 nM Mpro, 25 μM FRET substrate, 20 min preincubation at room temperature; mean n=2; read-out: SARS-CoV-2 Mpro enzyme pKi assay pKi (converted).
Format: biochemical
For `CC(C)C(=O)N[C@H](C(=O)N1C[C@H]2[C@@H]([C@H]1C(=O)NC(CC1CC1)C(=O)C(N)=O)C2(C)C)C(C)(C)C` (stereo partly drawn) [Example 1, (1 R,2S,5S)—N-(4-Amino-1-cyclopropyl-3,4-dioxobutan-2-yl)-3-((S)-2-isobutyramido-3,3-dimethylbutanoyl)-6,6-dimethyl-3-azabicyclo[3.1.0]hexane-2-carboxamide], the Ki was 15.8 nM. `CC(C)[C@H](NC(=O)C1CC1)C(=O)N1C[C@H]2[C@@H]([C@H]1C(=O)NC(CC1CC1)C(=O)C(N)=O)C2(C)C` (stereo partly drawn) [Example 2, (1 R,2S,5S)—N-[3-Amino-1-(cyclopropylmethyl)-2,3-dioxo-propyl]-3-[(2S)-2-(cyclopropanecarbonylamino)-3-methylbutanoyl]-6,6-dimethyl-3-azabicyclo[3.1.0]hexane-2-carboxamide] showed a Ki of 50.1 nM. In the case of `CC[C@@H](C)[C@H](NC(=O)C(C)C)C(=O)N1C[C@H]2[C@@H]([C@H]1C(=O)NC(CC1CC1)C(=O)C(N)=O)C2(C)C` (stereo partly drawn) [Example 3, (1R,2S,5S)—N-(4-Amino-1-cyclopropyl-3,4-dioxobutan-2-yl)-3-(isobutyryl-L-alloisoleucyl)-6,6-dimethyl-3-azabicyclo[3.1.0]hexane-2-carboxamide], the Ki was 79.4 nM. Molecule `C=CC(=O)N[C@H](C(=O)N1C[C@H]2[C@@H]([C@H]1C(=O)NC(CC1CC1)C(=O)C(N)=O)C2(C)C)C(C)C` (stereo partly drawn) [Example 4, (1 R,2S,5S)-3-(Acryloyl-L-valyl)-N-(4-amino-1-cyclopropyl-3,4-dioxobutan-2-yl)-6,6-dimethyl-3-azabicyclo[3.1.0]hexane-2-carboxamide] has a Ki of 50.1 nM. `CC(C)C(=O)N[C@H](C(=O)N1C[C@H]2[C@@H]([C@H]1C(=O)NC(C[C@H]1C[C@@H]1C)C(=O)C(N)=O)C2(C)C)C(C)C` (stereo partly drawn) [Example 5, (1 R,2S,5S)—N-(4-Amino-1-((1 R,2S)-2-methylcyclopropyl)-3,4-dioxobutan-2-yl)-3-(isobutyryl-L-valyl)-6,6-dimethyl-3-azabicyclo[3.1.0]hexane-2-carboxamide] gave a Ki of 158 nM. Molecule `CC(C)C(=O)N[C@@H](CC1CC1)C(=O)N1C[C@H]2[C@@H]([C@H]1C(=O)NC(CC1CC1)C(=O)C(N)=O)C2(C)C` (stereo partly drawn) [Example 6, (1 R,2S,5S)—N-(4-Amino-1-cyclopropyl-3,4-dioxobutan-2-yl)-3-((S)-3-cyclopropyl-2-isobutyramidopropanoyl)-6,6-dimethyl-3-azabicyclo[3.1.0]hexane-2-carboxamide] has a Ki of 200 nM. In the case of `CC(C)C(=O)N[C@H](C(=O)N1C[C@H]2[C@@H]([C@H]1C(=O)NC(CC1CC1)C(=O)C(N)=O)C2(C)C)C(C)C` (stereo partly drawn) [Example 7, (1 R,2S,5S)—N-(4-Amino-1-cyclopropyl-3,4-dioxobutan-2-yl)-3-(isobutyryl-L-valyl)-6,6-dimethyl-3-azabicyclo[3.1.0]hexane-2-carboxamide], the Ki was 200 nM. Work on `CC1(C)[C@@H]2[C@@H](C(=O)NC(CC3CC3)C(=O)C(N)=O)N(C(=O)[C@@H](NC(=O)C3CC3)C3CC3)C[C@@H]21` (stereo partly drawn) [Example 9, (1 R,2S,5S)—N-(4-Amino-1-cyclopropyl-3,4-dioxobutan-2-yl)-3-((S)-2-(cyclopropanecarboxamido)-2-cyclopropylacetyl)-6,6-dimethyl-3-azabicyclo[3.1.0]hexane-2-carboxamide] yielded a Ki of 316 nM. `CC(C)C(=O)N[C@H](C(=O)N1C[C@H]2[C@@H]([C@H]1C(=O)NC(CC1CC1)C(=O)C(N)=O)C2(C)C)C1CC1` (stereo partly drawn) [Example 10, (1 R,2S,5S)—N-(4-Amino-1-cyclopropyl-3,4-dioxobutan-2-yl)-3-((S)-2-cyclopropyl-2-isobutyramidoacetyl)-6,6-dimethyl-3-azabicyclo[3.1.0]hexane-2-carboxamide] was tested, and the Ki was 316 nM. `CC(C)C(=O)NC(C(=O)N1C[C@H]2[C@@H]([C@H]1C(=O)NC(CC1CC1)C(=O)C(N)=O)C2(C)C)C1COC1` (stereo partly drawn) [Example 13, (1 R,2S,5S)—N-(4-Amino-1-cyclopropyl-3,4-dioxobutan-2-yl)-3-(2-isobutyramido-2-(oxetan-3-yl)acetyl)-6,6-dimethyl-3-azabicyclo[3.1.0]hexane-2-carboxamide] gave a Ki of 316 nM. In the case of `CC(C)(C)[C@H](NC(=O)C1CC1)C(=O)N1C[C@H]2[C@@H]([C@H]1C(=O)NC(CC1CC1)C(=O)C(N)=O)C2(C)C` (stereo partly drawn) [Example 14, (1 R,2S,5S)—N-(4-Amino-1-cyclopropyl-3,4-dioxobutan-2-yl)-3-((S)-2-(cyclopropanecarboxamido)-3,3-dimethylbutanoyl)-6,6-dimethyl-3-azabicyclo[3.1.0]hexane-2-carboxamide], the Ki was 15.8 nM. For `C=CC(=O)N[C@H](C(=O)N1C[C@H]2[C@@H]([C@H]1C(=O)NC(CC1CC1)C(=O)C(N)=O)C2(C)C)C(C)(C)C` (stereo partly drawn) [Example 15, (1 R,2S,5S)-3-((S)-2-Acrylamido-3,3-dimethylbutanoyl)-N-(4-amino-1-cyclopropyl-3,4-dioxobutan-2-yl)-6,6-dimethyl-3-azabicyclo[3.1.0]hexane-2-carboxamide], the Ki was 3.98 nM. `CC(C)(C)[C@H](NC(=O)C1CC1)C(=O)N1C[C@H]2[C@@H]([C@H]1C(=O)NC(CC1CC1)C(=O)C(=O)NCc1ccccc1)C2(C)C` (stereo partly drawn) [Example 18, (1 R,2S,5S)—N-(4-(Benzylamino)-1-cyclopropyl-3,4-dioxobutan-2-yl)-3-((S)-2-(cyclopropanecarboxamido)-3,3-dimethylbutanoyl)-6,6-dimethyl-3-azabicyclo[3.1.0]hexane-2-carboxamide] showed a Ki of 50.1 nM. `CC(C)(C)[C@H](NC(=O)C1CC1)C(=O)N1C[C@H]2[C@@H]([C@H]1C(=O)NC(CC1CC1)C(=O)C(=O)NC1CC1)C2(C)C` (stereo partly drawn) [Example 19, (1 R,2S,5S)-3-((S)-2-(Cyclopropanecarboxamido)-3,3-dimethylbutanoyl)-N-(1-cyclopropyl-4-(cyclopropylamino)-3,4-dioxobutan-2-yl)-6,6-dimethyl-3-azabicyclo[3.1.0]hexane-2-carboxamide] showed a Ki of 50.1 nM. Molecule `CNC(=O)C(=O)C(CC1CC1)NC(=O)[C@@H]1[C@@H]2[C@H](CN1C(=O)[C@@H](NC(=O)C(C)C)C(C)(C)C)C2(C)C` (stereo partly drawn) [Example 22, (1 R,2S,5S)—N-(1-Cyclopropyl-4-(methylamino)-3,4-dioxobutan-2-yl)-3-((S)-2-isobutyramido-3,3-dimethylbutanoyl)-6,6-dimethyl-3-azabicyclo[3.1.0]hexane-2-carboxamide] has a Ki of 15.8 nM. With `CC(C)C(=O)N[C@H](C(=O)N1C[C@H]2[C@@H]([C@H]1C(=O)NC(CC1CC1)C(=O)C(=O)N(C)C)C2(C)C)C(C)(C)C` (stereo partly drawn) [Example 23, (1 R,2S,5S)—N-(1-Cyclopropyl-4-(dimethylamino)-3,4-dioxobutan-2-yl)-3-((S)-2-isobutyramido-3,3-dimethylbutanoyl)-6,6-dimethyl-3-azabicyclo[3.1.0]hexane-2-carboxamide] the Ki was greater than 5010 nM. Molecule `CC(C)C(=O)N[C@H](C(=O)N1C[C@H]2[C@@H]([C@H]1C(=O)NC(CC1CC1)C(=O)C(N)=O)C2(C)C)C1CCC1` (stereo partly drawn) [Example 25, (1 R,2S,5S)—N-(4-Amino-1-cyclopropyl-3,4-dioxobutan-2-yl)-3-((S)-2-cyclobutyl-2-isobutyramidoacetyl)-6,6-dimethyl-3-azabicyclo[3.1.0]hexane-2-carboxamide] has a Ki of 251 nM. For `CC(C)C(=O)N[C@H](C(=O)N1C[C@H]2[C@@H]([C@H]1C(=O)NC(C#N)CC1CC1)C2(C)C)C(C)(C)C` (stereo partly drawn) [Example 27, (1 R,2S,5S)—N-(1-Cyano-2-cyclopropylethyl)-3-((S)-2-isobutyramido-3,3-dimethylbutanoyl)-6,6-dimethyl-3-azabicyclo[3.1.0]hexane-2-carboxamide], the Ki was greater than 5010 nM. `CC(C)[C@H](NC(=O)C1CC1)C(=O)N1C[C@H]2[C@@H]([C@H]1C(=O)NC(CC1CC1)C(=O)C(=O)NC1CC1)C2(C)C` (stereo partly drawn) [Example 29, (1 R,2S,5S)-3-((Cyclopropanecarbonyl)-L-valyl)-N-(1-cyclopropyl-4-(cyclopropylamino)-3,4-dioxobutan-2-yl)-6,6-dimethyl-3-azabicyclo[3.1.0]hexane-2-carboxamide] was tested, and the Ki was 251 nM. `CC(C)C(=O)NC(C(=O)N1C[C@H]2[C@@H]([C@H]1C(=O)NC(CC1CC1)C(=O)C(N)=O)C2(C)C)C1CCOC1` (stereo partly drawn) [Example 30, (1 R,2S,5S)—N-(4-Amino-1-cyclopropyl-3,4-dioxobutan-2-yl)-3-(2-isobutyramido-2-(tetrahydrofuran-3-yl)acetyl)-6,6-dimethyl-3-azabicyclo[3.1.0]hexane-2-carboxamide] was tested, and the Ki was 158 nM. `CC(C)C(=O)N[C@H](C(=O)N1C[C@H]2[C@@H]([C@H]1C(=O)NC(CC1CC1)C(=O)C(=O)N[C@H]1CC1(C)C)C2(C)C)C(C)(C)C` (stereo partly drawn) [Example 31, (1 R,2S,5S)—N-(1-Cyclopropyl-4-(((S)-2,2-dimethylcyclopropyl)amino)-3,4-dioxobutan-2-yl)-3-((S)-2-isobutyramido-3,3-dimethylbutanoyl)-6,6-dimethyl-3-azabicyclo[3.1.0]hexane-2-carboxamide] gave a Ki of 100 nM. For `CC(C)(C)[C@H](NC(=O)C(C(F)(F)F)C(F)(F)F)C(=O)N1C[C@H]2[C@@H]([C@H]1C(=O)NC(CC1CC1)C(=O)C(N)=O)C2(C)C` (stereo partly drawn) [Example 33, (1 R,2S,5S)—N-(4-Amino-1-cyclopropyl-3,4-dioxobutan-2-yl)-3-((S)-3,3-dimethyl-2-(3,3,3-trifluoro-2-(trifluoromethyl)propanamido)butanoyl)-6,6-dimethyl-3-azabicyclo[3.1.0]hexane-2-carboxamide], the Ki was 158 nM.
